Here are results for 49 molecules from US20240368174A1, “Antiviral Heterocyclic Compounds” (Enanta Pharmaceuticals, Inc., priority 2023, published 2024).

The pEC50 is the EC50 on a negative log10 scale, so that one unit is a factor of ten. A low value points to a large EC50.

Each structure is given as a SMILES string. pEC50: −log10 of the molar value.

The test system of one assay is HMPV clinical isolate A2 strain TN 94-49. Put plainly: HMPV antiviral assay, Method 2 (LLC-MK2 cells with CP-100-356, ATP-Lite). It counts as cell-based. The conditions noted are these: human metapneumovirus, 168 h; hMPV A2 TN/94-49, LLC-MK2 cells with 4 μM CP-100-356, 7 days, ATP-Lite. A digest of the protocol:
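EC50 comes from a four-parameter fit of percent cell viability (ATP-Lite, normalized to virus-only and cell-only wells) after 7 days at 37 °C. Infection used HMPV A2 TN 94-49 at MOI 0.16 in LLC-MK2 cells, with 2 μM P-gp inhibitor CP-100-356 and 2 μg/mL TPCK-trypsin final; dose range 200 nM top, 2.5-fold, 10 points, duplicate.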
`COc1cc(C(=O)NC[C@](O)(c2cc3c(c(-c4ccnc(N5CCOCC5)c4Cl)n2)OC[C@]3(C)C(N)=O)C2CC2)cc2cn(C3CC3)nc12` [Example 805] gave a pEC50 below 6.70.

On to `COc1cc(C(=O)NC[C@](O)(c2cc3c(c(-c4ccnc(C5CCOCC5)c4Cl)n2)OC[C@]3(C)C(N)=O)C2CC2)cc2cn(C3(F)CC3)nc12` [Example 905], for which the negative-log EC50 (pEC50) was below 6.70.

Turning to `COc1cc(C(=O)NC[C@](O)(c2cc3c(c(-n4ncc5c(F)cccc54)n2)OC[C@]3(C)C(N)=O)C(F)(F)F)cc2oc(C3CC3)nc12` [Example 836], the pEC50 is below 6.70.

For the molecule `COc1cc(C(=O)NC[C@](O)(c2cc3c(c(-c4c(C)cncc4F)n2)OC[C@]3(C)C(N)=O)C2CC2)cc2cn(C3CC3)nc12` [Example 725], the pEC50 was above 6.70.

Molecule `COc1nccc(-c2nc([C@@](O)(CNC(=O)c3cc(OC4CC4)c4nn(C5(F)CC5)cc4c3)C(C)C)cc3c2OC[C@]3(C)C(N)=O)c1Cl` [Example 892] showed a negative logarithm of the EC50 (pEC50) above 6.70.

For the molecule `COc1cc(C(=O)NC[C@](O)(c2cc3c(c(-c4ccn5nc(C)cc5c4)n2)OC[C@]3(C)C(N)=O)C2CC2)cc2cn(C3CC3)nc12` [Example 838], the pEC50 was below 6.70.

Turning to `CC(C)c1nccc(-c2nc([C@@](O)(CNC(=O)c3cc(OC4CC4)c4nn(C5CC5)cc4c3)C3CC3)cc3c2OC[C@]3(C)C(N)=O)c1Cl` [Example 913], the negative logarithm of the EC50 (pEC50) was below 6.70.

In the case of `COc1cc(-c2nc([C@@](O)(CNC(=O)c3cc(OC4CC4)c4nn(C5CC5)cc4c3)c3ccccc3)cc3c2OC[C@]3(C)C(N)=O)c(F)cn1` [Example 900], the negative logarithm of the EC50 (pEC50) is below 6.70.

Molecule `COc1cc(-c2nc([C@@](O)(CNC(=O)c3cc(OC)c4nc(C5CC5)oc4c3)c3ccccc3)cc3c2OC[C@]3(C)C(N)=O)c(F)cn1` [Example 638] gave a pEC50 above 6.70.

In turn, `COc1nccc(-c2nc([C@@](O)(CNC(=O)c3cc(OC)n4nc(C5CC5)cc4c3)C(C)C)cc3c2OC[C@]3(C)C(N)=O)c1Cl` [Example 890] showed a negative logarithm of the EC50 (pEC50) below 6.70.

Turning to `COc1nccc(-c2nc([C@@](O)(CNC(=O)c3cc(OC)c4nn(C5(F)CC5)cc4c3)c3ccc(F)cc3)cc3c2OC[C@]3(C)C(N)=O)c1Cl` [Example 697], the pEC50 was above 6.70.

`COc1cc(C(=O)NC[C@](O)(c2cc3c(c(-n4ncc5c(F)cccc54)n2)OC[C@]3(C)C(N)=O)C2CC2)cc2cc(Cl)c(C)nc12` [Example 899]: the negative logarithm of the EC50 (pEC50) was below 6.70.

`COc1cc(C(=O)NC[C@@](O)(c2ccccc2)c2cc3c(c(-c4ccnc(C)c4Cl)n2)OC[C@]3(C)C(N)=O)cc2cn(C3CC3)nc12` [Example 692] had a pEC50 above 6.70.

Regarding `COc1cc(C(=O)NC[C@@](O)(c2ccccc2)c2cc3c(c(-c4ccnc(C)c4Cl)n2)OC[C@]3(C)C(N)=O)cc2cn(C3(F)CC3)nc12` [Example 693], the pEC50 is above 6.70.

The assay is the same for the next values; noted with them: human metapneumovirus; hMPV A2 TN/94-49, LLC-MK2 cells with CP-100-356, Method 2.
In the case of `COc1cc(C(=O)NCC(O)(c2ccccc2)c2cc3c(c(-c4ccc(F)cc4)n2)OC[C@]3(C)C(N)=O)cc2cn(C3(F)CC3)nc12` (stereo partly shown) [Example 361], the pEC50 was below 6.70.

As to `COc1cc(C(=O)NC[C@](O)(c2cccc(F)c2)c2cc3c(c(-c4cc(F)c(F)cc4C(N)=O)n2)OC[C@]3(C)C(N)=O)cc2cn(C3(F)CC3)nc12` [Example 406], the negative-log EC50 (pEC50) is below 6.70.

The molecule `COc1nccc(-c2nc([C@@](O)(CNC(=O)c3cc(OC)c4nc(C5CC5)cn4c3)C(F)(F)F)cc3c2OC[C@]3(C)C(N)=O)c1Cl` [Example 589] had a pEC50 above 6.70.

`COc1cc(C(=O)NC[C@](O)(c2cc3c(c(-c4ccnc(C(F)(F)F)c4Cl)n2)OC[C@]3(C)C(N)=O)C(F)(F)F)cn2cc(C3CC3)nc12` [Example 598] gave a pEC50 above 6.70.

In turn, `COc1nccc(-c2nc([C@@](O)(CNC(=O)c3cc(OC)c4nc(C5CC5)oc4c3)C(F)(F)F)cc3c2OC[C@]3(C)C(N)=O)c1Cl` [Example 545] had a pEC50 above 6.70.

Turning to `COc1cc(C(=O)NC[C@@](O)(c2cccc(C(C)O)c2)c2cc3c(c(-c4cccc(Cl)c4Cl)n2)OC[C@]3(C)C(N)=O)cc2cn(C3CC3)nc12` (stereo partly shown) [Example 495], the pEC50 is below 6.70.

Molecule `Cc1cc(C(=O)NC[C@](O)(c2cc3c(c(-c4cc(F)c(F)cc4F)n2)OC[C@]3(C)C(N)=O)C2CC2)cc2cn[nH]c12` [Example 120] had a pEC50 below 6.70.

Consider `Cc1nccc(-c2nc([C@@](O)(CNC(=O)c3cc(Cl)c4nn(C5CC5)cc4c3)C3(F)CC3)cc3c2OC[C@]3(C)C(N)=O)c1Cl` [Example 529], for which the pEC50 was below 6.70.

With `C[C@]1(C(N)=O)COc2c1cc([C@@](O)(CNC(=O)c1ccc3nc(C4CCC4)oc3c1)c1ccccc1)nc2-c1cc(Cl)c(F)cc1F` [Example 221], the pEC50 was below 6.70.

Molecule `COc1cc(C(=O)NC[C@@](O)(c2ccccc2)c2cc3c(c(-c4cc(Cl)c(F)cc4F)n2)OC[C@]3(C)C(N)=O)cc(O)c1NC(=O)C1(F)CC1` [Example 242] had a pEC50 below 6.70.

On to `COc1cc(C(=O)NC[C@@](O)(c2ccccc2)c2cc3c(c(-c4cc(F)c(F)cc4F)n2)OC[C@]3(C)C(N)=O)cc2oc(C3CC3)nc12` [Example 195], for which the pEC50 was above 6.70.

The molecule `COc1cc([C@](O)(CNC(=O)c2cc(OC)c3nn(C4CC4)cc3c2)c2cc3c(c(-c4cc(Cl)c(F)cc4F)n2)OC[C@]3(C)C(N)=O)cc(F)n1` [Example 503] gave a pEC50 above 6.70.

As for `COc1cc(C(=O)NC[C@](O)(c2cc3c(c(-n4ccc5ccccc54)n2)OC[C@]3(C)C(N)=O)C(F)(F)F)cc2cn(C(F)F)nc12` [Example 449], the pEC50 was above 6.70.

Turning to `C[C@]1(C(N)=O)COc2c1cc([C@@](O)(CNC(=O)c1cc(OC3CC3)c3nc(C4CC4)oc3c1)c1ccccc1)nc2-c1cc(Cl)c(F)cc1F` [Example 233], the pEC50 was above 6.70.

Turning to `COc1cc(C(=O)NC[C@](O)(c2cc3c(c(-c4cc(F)c(F)cc4F)n2)OC[C@]3(C)C(N)=O)C2CC2)cc2cc(Cl)cnc12` [Example 103], the pEC50 was above 6.70.

In the case of `C[C@]1(C(N)=O)COc2c1cc([C@@](O)(CNC(=O)c1cc(OC3CC3)c3nn(C4(F)CC4)cc3c1)C1CC1)nc2-c1ccc(F)c(Cl)c1` [Example 112], the pEC50 is above 6.70.

Regarding `COc1cc(C(=O)NC[C@](O)(c2cc3c(c(-c4cc(Cl)c(F)cc4F)n2)OC[C@]3(C)C(N)=O)c2ccnn2C)cc2cn(C3CC3)nc12` [Example 481], the pEC50 was above 6.70.

For the molecule `COc1cc(C(=O)NC[C@@](O)(c2cnc(C3CC3)nc2)c2cc3c(c(-c4cc(Cl)c(F)cc4F)n2)OC[C@]3(C)C(N)=O)cc2cn(C3CC3)nc12` [Example 478], the negative logarithm of the EC50 (pEC50) is above 6.70.

In the case of `[2H]c1nc2c(OC)cc(C(=O)NC[C@@](O)(c3ccccc3)c3cc4c(c(-c5cc(Cl)c(F)cc5F)n3)OC[C@]4(C)C(N)=O)cc2cc1Cl` [Example 220], the negative-log EC50 (pEC50) is above 6.70.

On to `COc1cc(C(=O)NC[C@](O)(c2cc3c(c(-c4ccnc(Cl)c4Cl)n2)OC[C@]3(C)C(N)=O)C2(F)CC2)cc2oc(C3CC3)nc12` [Example 520], for which the pEC50 is above 6.70.

As for `COc1nccc(-c2nc([C@@](O)(CNC(=O)c3cc(OC)c4nn(C5(F)CC5)cc4c3)c3cccc(F)c3)cc3c2OC[C@]3(C)C(N)=O)c1Cl` [Example 559], the pEC50 is above 6.70.

As to `C[C@]1(C(N)=O)COc2c1cc([C@@](O)(CNC(=O)c1ccc3nc(C4CC4)oc3c1)c1ccccc1)nc2-c1cc(F)c(F)cc1F` [Example 194], the pEC50 is above 6.70.

In turn, `COc1nccc(-c2nc([C@@](O)(CNC(=O)c3cc(OC4CC4)c4nn(C5(F)CC5)cc4c3)C3CC3)cc3c2OC[C@]3(C)C(N)=O)c1Cl` [Example 592] gave a negative-log EC50 (pEC50) above 6.70.

As to `COc1cc(C(=O)NC[C@](O)(c2cc3c(c(-c4cc(C(F)(F)F)c(F)cc4F)n2)OC[C@]3(C)C(N)=O)C(F)(F)F)cc2cn(C3CC3)nc12` [Example 395], the pEC50 was above 6.70.

Regarding `COc1cc(C(=O)NC[C@@](O)(c2ccc(F)cc2)c2cc3c(c(-c4ccnc(C(F)(F)F)c4F)n2)OC[C@]3(C)C(N)=O)cc2oc(C3CC3)nc12` [Example 574], the pEC50 is above 6.70.

In turn, `COc1cc(C(=O)NC[C@@](O)(c2ccccc2)c2cc3c(c(-c4ccnc(C(F)F)c4Cl)n2)OC[C@]3(C)C(N)=O)cc2cn(C3(F)CC3)nc12` [Example 563] had a negative logarithm of the EC50 (pEC50) above 6.70.

Take `COc1cc(C(=O)NC[C@](O)(c2cc3c(c(-c4ccnc5[nH]ccc45)n2)OC[C@]3(C)C(N)=O)C2CC2)cc2cn(C3CC3)nc12` [Example 429]: the pEC50 was below 6.70.

As to `COc1cc(C(=O)NCC(O)(c2cccc(F)c2)c2cc3c(c(-c4cccc(Cl)c4C#N)n2)OC[C@]3(C)C(N)=O)cc2cn(C3(F)CC3)nc12` (stereo partly shown) [Example 399], the pEC50 was below 6.70.

As for `C[C@]1(C(N)=O)COc2c1cc([C@@](O)(CNC(=O)c1cc(OC3CC3)c3nn(C(F)F)cc3c1)C(F)(F)F)nc2-c1ccnc(C(F)(F)F)c1Cl` [Example 594], the pEC50 is above 6.70.

Consider `COc1nccc(-c2nc([C@@](O)(CNC(=O)c3cc(OC)c4nc(C(F)F)oc4c3)c3ccccc3)cc3c2OC[C@]3(C)C(N)=O)c1Cl` [Example 557], for which the pEC50 was above 6.70.

With `C[C@]1(C(N)=O)COc2c1cc([C@@](O)(CNC(=O)c1ccc3nc(C4CC4)oc3c1)c1ccccc1)nc2-c1cc(C(F)F)c(F)cc1F` [Example 311], the pEC50 was above 6.70.

Regarding `COc1nccc(-c2nc([C@@](O)(CNC(=O)c3cc(OC)n4nc(C5CC5)cc4c3)C(F)(F)F)cc3c2OC[C@]3(C)C(N)=O)c1Cl` [Example 590], the pEC50 is above 6.70.

For `Cc1nccc(-c2nc([C@@](O)(CNC(=O)c3cc(OC4CC4)c4nn(C5CC5)cc4c3)C3CC3)cc3c2OC[C@]3(C)C(N)=O)c1Cl` [Example 600], the pEC50 is above 6.70.

The molecule `Cc1nccc(-c2nc([C@@](O)(CNC(=O)c3cc(OC4CC4)c4nn(C(F)F)cc4c3)c3cccc(F)c3)cc3c2OC[C@]3(C)C(N)=O)c1Cl` [Example 604] had a negative-log EC50 (pEC50) above 6.70.

The molecule `COc1cc(C(=O)NC[C@@](O)(c2cccc(F)c2)c2cc3c(c(-c4cc(F)c(F)cc4C(N)=O)n2)OC[C@]3(C)C(N)=O)cc2cn(C3(F)CC3)nc12` [Example 405] had a negative logarithm of the EC50 (pEC50) below 6.70.
